Results published in patent publication US4554289A, “OF4949” (Takara Shuzo Co., Ltd., priority 1982, dated 1985).

Legend:
[1] = test system: cellular immunity (delayed type hypersensitivity to sheep erythrocytes); test: Delayed type hypersensitivity (DTH) to sheep erythrocytes, hind paw edema (cellular immunity); type: in vivo, CDF1 strain female mice; settings: for Thickness of Edema (Mean Value ± Standard Error): hind paw, 24 hours after challenge; for Potentiating Ratio to Control: control = 100
Description: Thus, sheep erythrocytes are used as antigen and 1×10^5 of them are subjected to intravenous injection to CDF1 strain female mice of 10 weeks of age (8 mice per group) and, immediately after the sensitization, a solution of OF4949 or derivatives thereof in a sterilized water is injected intraperitoneally with dosages of 5, 50 or 500 μg/kg and, after four days, 10^8 sheep erythrocytes are injected subcutaneously into left hind paws of the mice. After 24 hours, the degree of edema, i.e. thickness of the paws at that time, observed at the hind paws is measured using a slide calipers.

Solubilities = type: physicochemical
[2] = Neutral, acidic or basic properties; type: physicochemical
ICR strains of mice = test: Acute toxicity test, 300 mg/kg intraperitoneally; type: in vivo
Description: The compounds of the present invention are also characterized by a very low toxicity, making their administration to humans and animals facile. Acute toxicity tests injecting 300 mg/kg intraperitoneally of representative compounds of the present invention to ICR strains of mice produced the toxicity results set forth in Table 9 below: […]

[3] = in methyl alcohol and ethyl alcohol
[4] = in n-propyl alcohol, n-butyl alcohol, acetone, ethyl acetate, chloroform, ether, benzene, and hexane
[5] = in water, alkaline water, and dimethyl sulfoxide

Row | Compound | Thickness of Edema (Mean Value ± Standard Error) ([1]; 5 μg/kg intraperitoneally) | Potentiating Ratio to Control ([1]; 5 μg/kg intraperitoneally) | Thickness of Edema (Mean Value ± Standard Error) ([1]; 50 μg/kg intraperitoneally) | Potentiating Ratio to Control ([1]; 50 μg/kg intraperitoneally) | Thickness of Edema (Mean Value ± Standard Error) ([1]; 500 μg/kg intraperitoneally) | Potentiating Ratio to Control ([1]; 500 μg/kg intraperitoneally) | Solubility (Solubilities; [3]) | Solubility (Solubilities; [4]) | Solubility (Solubilities; [5]) | Neutral, acidic or basic properties [2] | Acute toxicity test result (ICR strains of mice)
1 | COc1ccc2cc1Oc1ccc(cc1)CC(C(N)=O)NC(=O)C(C(O)C(N)=O)NC(=O)C(N)C2 (stereo not drawn) [Compound 17] | 8.8 ± 0.7 × 0.1 mm | 126% | 8.4 ± 0.7 × 0.1 mm | 120% | 8.5 ± 0.7 × 0.1 mm | 121% | – | – | – | – | –
2 | NC1Cc2ccc(O)c(c2)Oc2ccc(cc2)CC(C(=O)O)NC(=O)C(C(O)C(=O)O)NC1=O (stereo not drawn) [Compound 2] | 9.3 ± 1.2 × 0.1 mm | 116% | 9.1 ± 1.1 × 0.1 mm | 114% | 10.2 ± 0.9 × 0.1 mm | 128% | – | – | – | – | –
3 | COc1ccc2cc1Oc1ccc(cc1)CC(C(=O)O)NC(=O)C(C(O)C(=O)O)NC(=O)C(N)C2 (stereo not drawn) [Compound 18] | 8.2 ± 0.7 × 0.1 mm | 117% | 8.5 ± 0.7 × 0.1 mm | 121% | 7.5 ± 0.6 × 0.1 mm | 107% | – | – | – | – | –
4 | NC(=O)C(O)C1NC(=O)C(N)Cc2ccc(O)c(c2)Oc2ccc(cc2)CC(C(=O)O)NC1=O (stereo not drawn) [OF4949-II] | 11.7 ± 1.9 × 0.1 mm | 127% | 13.5 ± 1.2 × 0.1 mm | 147% | 11.4 ± 2.6 × 0.1 mm | 124% | hardly soluble | insoluble | soluble | amphoteric | –
5 | COc1ccc2cc1Oc1ccc(cc1)CC(CO)NC(=O)C(C(O)CO)NC(=O)C(N)C2 (stereo not drawn) [Compound 21] | 7.8 ± 0.8 × 0.1 mm | 111% | 7.8 ± 0.7 × 0.1 mm | 111% | 8.7 ± 0.8 × 0.1 mm | 124% | – | – | – | – | –
6 | COc1ccc2cc1Oc1ccc(cc1)CC(C(=O)O)NC(=O)C(C(O)C(N)=O)NC(=O)C(N)C2 (stereo not drawn) [OF4949-I] | 9.5 ± 0.6 × 0.1 mm | 132% | 11.7 ± 1.5 × 0.1 mm | 163% | 9.1 ± 0.5 × 0.1 mm | 126% | hardly soluble | insoluble | soluble | amphoteric | No toxicity is observed
